Test results: patent publication US12559529B2, “NPY2 receptor agonists” (Boehringer Ingelheim International GmbH, priority 2019, dated 2026)

Target: T1, Human Neuropeptide Y2 Receptor (Homo sapiens, UniProt P49146)
T1 construct: purchased CHEMICON HTS066M
T1 sequence (P49146 1-381): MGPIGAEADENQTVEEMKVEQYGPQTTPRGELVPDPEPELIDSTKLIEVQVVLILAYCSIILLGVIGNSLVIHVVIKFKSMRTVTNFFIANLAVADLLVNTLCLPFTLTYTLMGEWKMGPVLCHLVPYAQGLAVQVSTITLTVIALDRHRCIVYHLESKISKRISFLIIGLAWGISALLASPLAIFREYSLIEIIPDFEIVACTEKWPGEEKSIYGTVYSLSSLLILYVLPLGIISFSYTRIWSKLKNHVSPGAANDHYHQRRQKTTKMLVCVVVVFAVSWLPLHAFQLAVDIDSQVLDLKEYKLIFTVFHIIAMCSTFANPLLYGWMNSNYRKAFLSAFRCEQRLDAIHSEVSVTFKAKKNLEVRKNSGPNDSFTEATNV
Test: Radioligand binding competition assay (RLB)
Settings: Table 3; human 125I-PYY (1-36) 0.02 nM, Y2 receptor membranes; read-out: Ki
Summary of the method: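 Competition binding on human Y2 receptor membranes, 0.5 μg protein/well, in 50 mM HEPES, 5 mM MgCl2, 1 mM CaCl2, pH 7.4, 0.2% ovalbumin; peptides diluted from 1 mM DMSO stocks.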

| Compound | Ki |
| --- | --- |
| CC(C)CC(=O)N[C@@H](C)C(=O)N1CCC[C@H]1C(=O)N[C@@H](CCC(=O)O)C(=O)N[C@@H](CCCCNC(=O)COCCOCCNC(=O)COCCOCCNC(=O)CC[C@H](NC(=O)CCCCCCCCCCCCCCCCC(=O)O)C(=O)O)C(=O)N1CCC[C@H]1C(=O)N[C@@H](CCC(=O)O)C(=O)N[C@@H](CCC(=O)O)C(=O)N[C@@H](CCC(=O)O)C(=O)N[C@@H](C)C(=O)N[C@@H](CO)C(=O)N1CCC[C@H]1C(=O)N[C@@H](CCC(=O)O)C(=O)N[C@@H](CCC(=O)O)C(=O)N[C@@H](CC(C)C)C(=O)N[C@@H](CCC(N)=O)C(=O)N[C@@H](CCCNC(=N)N)C(=O)N[C@@H](Cc1ccc(O)cc1)C(=O)N[C@@H](Cc1ccc(O)cc1)C(=O)N[C@H](C(=O)N[C@H](C(=O)N[C@@H](CC(C)C)C(=O)N[C@@H](CCCNC(=N)N)C(=O)N[C@@H](Cc1c[nH]cn1)C(=O)N[C@@H](Cc1ccc(O)cc1)C(=O)N[C@@H](Cc1ccc(O)cc1)C(=O)N[C@@H](CC(N)=O)C(=O)N[C@@H](Cc1c[nH]c2ccccc12)C(=O)N[C@@H](CC(C)C)C(=O)N[C@H](C(=O)N[C@@H](CCCNC(=N)N)C(=O)N[C@@H](CCC(N)=O)C(=O)N[C@@H](CCCNC(=N)N)C(=O)N[C@@H](Cc1ccc(O)cc1)C(N)=O)[C@@H](C)O)[C@@H](C)O)C(C)C [Compound 119, N{alpha-4}-(3-methylbutanoyl)-N{epsilon-7}-[2-(2-{2-[2-(2-{2-[(4S)-4-carboxy-4-(17-carboxyheptadecanamido)butanamido]ethoxy}ethoxy)acetamido]ethoxy}ethoxy)acetamido]-[4A,7K,9E,11E,18Q,22V,23T,28Y,30W,31L]hPYY (4-36)] | 3.32 nM |
| CC(C)CC(=O)N[C@@H](C)C(=O)N1CCC[C@H]1C(=O)N[C@@H](C)C(=O)N[C@@H](CCCCNC(=O)COCCOCCNC(=O)COCCOCCNC(=O)CC[C@H](NC(=O)CCCCCCCCCCCCCCCCC(=O)O)C(=O)O)C(=O)N1CCC[C@H]1C(=O)N[C@@H](CCC(=O)O)C(=O)N[C@@H](C)C(=O)N[C@@H](CC(=O)O)C(=O)N[C@@H](C)C(=O)N[C@@H](CO)C(=O)N1CCC[C@H]1C(=O)N[C@@H](CCC(=O)O)C(=O)N[C@@H](CCC(=O)O)C(=O)N[C@@H](CC(C)C)C(=O)N[C@@H](CCC(N)=O)C(=O)N[C@@H](CCCNC(=N)N)C(=O)N[C@@H](Cc1ccc(O)cc1)C(=O)N[C@@H](Cc1ccc(O)cc1)C(=O)N[C@H](C(=O)N[C@@H](CO)C(=O)N[C@@H](CC(C)C)C(=O)N[C@@H](CCCNC(=N)N)C(=O)N[C@@H](Cc1c[nH]cn1)C(=O)N[C@@H](Cc1ccc(O)cc1)C(=O)N[C@@H](Cc1ccc(O)cc1)C(=O)N[C@@H](CC(N)=O)C(=O)N[C@@H](Cc1c[nH]c2ccccc12)C(=O)N[C@@H](CC(C)C)C(=O)N[C@H](C(=O)N[C@@H](CCCNC(=N)N)C(=O)N[C@@H](CCC(N)=O)C(=O)N[C@@H](CCCNC(=N)N)C(=O)N[C@@H](Cc1ccc(O)cc1)C(N)=O)[C@@H](C)O)C(C)C [Compound 121, N{alpha-4}-(3-methylbutanoyl)-N{epsilon-7}-[2-(2-{2-[2-(2-{2-[(4S)-4-carboxy-4-(17-carboxyheptadecanamido)butanamido]ethoxy}ethoxy)acetamido]ethoxy}ethoxy)acetamido]-[4A,6A,7K,9E,10A,18Q,22V,28Y,30W,31L]hPYY (4-36)] | 0.61 nM |
| CC(C)CC(=O)N[C@@H](C)C(=O)N1CCC[C@H]1C(=O)N[C@@H](CCC(=O)O)C(=O)N[C@@H](CCCCNC(=O)COCCOCCNC(=O)COCCOCCNC(=O)CC[C@H](NC(=O)CCCCCCCCCCCCCCCCC(=O)O)C(=O)O)C(=O)N1CCC[C@H]1C(=O)N[C@@H](CCC(=O)O)C(=O)N[C@@H](CCC(=O)O)C(=O)N[C@@H](CC(=O)O)C(=O)N[C@@H](C)C(=O)N[C@@H](C)C(=O)N1CCC[C@H]1C(=O)N[C@@H](CCC(=O)O)C(=O)N[C@@H](CCC(=O)O)C(=O)N[C@@H](CC(C)C)C(=O)N[C@@H](CCC(N)=O)C(=O)N[C@@H](CCCNC(=N)N)C(=O)N[C@@H](Cc1ccc(O)cc1)C(=O)N[C@@H](Cc1ccc(O)cc1)C(=O)N[C@H](C(=O)N[C@@H](CO)C(=O)N[C@@H](CC(C)C)C(=O)N[C@@H](CCCNC(=N)N)C(=O)N[C@@H](Cc1c[nH]cn1)C(=O)N[C@@H](Cc1ccc(O)cc1)C(=O)N[C@@H](Cc1ccc(O)cc1)C(=O)N[C@@H](CC(N)=O)C(=O)N[C@@H](Cc1c[nH]c2ccccc12)C(=O)N[C@@H](CC(C)C)C(=O)N[C@H](C(=O)N[C@@H](CCCNC(=N)N)C(=O)N[C@@H](CCC(N)=O)C(=O)N[C@@H](CCCNC(=N)N)C(=O)N[C@@H](Cc1ccc(O)cc1)C(N)=O)[C@@H](C)O)C(C)C [Compound 122, N{alpha-4}-(3-methylbutanoyl)-N{epsilon-7}-[2-(2-{2-[2-(2-{2-[(4S)-4-carboxy-4-(17-carboxyheptadecanamido)butanamido]ethoxy}ethoxy)acetamido]ethoxy}ethoxy)acetamido]-[4A,7K,9E,13A,18Q,22V,28Y,30W,31L]hPYY (4-36)] | 1.84 nM |
| CC(C)CC(=O)N[C@@H](C)C(=O)N1CCC[C@H]1C(=O)N[C@@H](C)C(=O)N[C@@H](CCCCNC(=O)COCCOCCNC(=O)COCCOCCNC(=O)CC[C@H](NC(=O)CCCCCCCCCCCCCCCCC(=O)O)C(=O)O)C(=O)N1CCC[C@H]1C(=O)N[C@@H](CCC(=O)O)C(=O)N[C@@H](CCC(=O)O)C(=O)N[C@@H](CC(=O)O)C(=O)N[C@@H](CO)C(=O)N[C@@H](CO)C(=O)N1CCC[C@H]1C(=O)N[C@@H](CCC(=O)O)C(=O)N[C@@H](CCC(=O)O)C(=O)N[C@@H](CC(C)C)C(=O)N[C@@H](CCC(N)=O)C(=O)N[C@@H](CCCNC(=N)N)C(=O)N[C@@H](Cc1ccc(O)cc1)C(=O)N[C@@H](Cc1ccc(O)cc1)C(=O)N[C@H](C(=O)N[C@@H](CO)C(=O)N[C@@H](CC(C)C)C(=O)N[C@@H](CCCNC(=N)N)C(=O)N[C@@H](Cc1c[nH]cn1)C(=O)N[C@@H](Cc1ccc(O)cc1)C(=O)N[C@@H](Cc1ccc(O)cc1)C(=O)N[C@@H](CC(N)=O)C(=O)N[C@@H](Cc1c[nH]c2ccccc12)C(=O)N[C@@H](CC(C)C)C(=O)N[C@H](C(=O)N[C@@H](CCCNC(=N)N)C(=O)N[C@@H](CCC(N)=O)C(=O)N[C@@H](CCCNC(=N)N)C(=O)N[C@@H](Cc1ccc(O)cc1)C(N)=O)[C@@H](C)O)C(C)C [Compound 126, N{alpha-4}-(3-methylbutanoyl)-N{epsilon-7}-[2-(2-{2-[2-(2-{2-[(4S)-4-carboxy-4-(17-carboxyheptadecanamido)butanamido]ethoxy}ethoxy)acetamido]ethoxy}ethoxy)acetamido]-[4A,6A,7K,9E,12S,18Q,22V,28Y,30W,31L]hPYY (4-36)] | 1.18 nM |
| CC(C)CC(=O)N[C@@H](C)C(=O)N1CCC[C@H]1C(=O)N[C@@H](CCC(=O)O)C(=O)N[C@@H](CCCCNC(=O)COCCOCCNC(=O)COCCOCCNC(=O)CC[C@H](NC(=O)CCCCCCCCCCCCCCCCC(=O)O)C(=O)O)C(=O)N1CCC[C@H]1C(=O)N[C@@H](CCC(=O)O)C(=O)N[C@@H](CCC(=O)O)C(=O)N[C@@H](CC(=O)O)C(=O)N[C@H](C(=O)N[C@@H](CO)C(=O)N[C@@H](C)C(=O)N[C@@H](CCC(=O)O)C(=O)N[C@@H](CCC(=O)O)C(=O)N[C@@H](CC(C)C)C(=O)N[C@@H](CCC(N)=O)C(=O)N[C@@H](CCCNC(=N)N)C(=O)N[C@@H](Cc1ccc(O)cc1)C(=O)N[C@@H](Cc1ccc(O)cc1)C(=O)N[C@H](C(=O)N[C@@H](CO)C(=O)N[C@@H](CC(C)C)C(=O)N[C@@H](CCCNC(=N)N)C(=O)N[C@@H](Cc1c[nH]cn1)C(=O)N[C@@H](Cc1ccc(O)cc1)C(=O)N[C@@H](Cc1ccc(O)cc1)C(=O)N[C@@H](CC(N)=O)C(=O)N[C@@H](Cc1c[nH]c2ccccc12)C(=O)N[C@@H](CC(C)C)C(=O)N[C@H](C(=O)N[C@@H](CCCNC(=N)N)C(=O)N[C@@H](CCC(N)=O)C(=O)N[C@@H](CCCNC(=N)N)C(=O)N[C@@H](Cc1ccc(O)cc1)C(N)=O)[C@@H](C)O)C(C)C)[C@@H](C)O [Compound 130, N{alpha-4}-(3-methylbutanoyl)-N{epsilon-7}-[2-(2-{2-[2-(2-{2-[(4S)-4-carboxy-4-(17-carboxyheptadecanamido)butanamido]ethoxy}ethoxy)acetamido]ethoxy}ethoxy)acetamido]-[4A,7K,9E,12T,14A, 18Q,22V,28Y,30W,31L]hPYY (4-36)] | 11.1 nM |
| CC(C)CC(=O)N[C@@H](C)C(=O)N1CCC[C@H]1C(=O)N[C@@H](CCC(=O)O)C(=O)N[C@@H](CCCCNC(=O)COCCOCCNC(=O)COCCOCCNC(=O)CC[C@H](NC(=O)CCCCCCCCCCCCCCCCC(=O)O)C(=O)O)C(=O)N[C@@H](C)C(=O)N[C@@H](CCC(=O)O)C(=O)N[C@@H](CCC(=O)O)C(=O)N[C@@H](CC(=O)O)C(=O)N[C@@H](C)C(=O)N[C@@H](CO)C(=O)N1CCC[C@H]1C(=O)N[C@@H](CCC(=O)O)C(=O)N[C@@H](CCC(=O)O)C(=O)N[C@@H](CC(C)C)C(=O)N[C@@H](CCC(N)=O)C(=O)N[C@@H](CCCNC(=N)N)C(=O)N[C@@H](Cc1ccc(O)cc1)C(=O)N[C@@H](Cc1ccc(O)cc1)C(=O)N[C@H](C(=O)N[C@@H](CCC(=O)O)C(=O)N[C@@H](CC(C)C)C(=O)N[C@@H](CCCNC(=N)N)C(=O)N[C@@H](Cc1c[nH]cn1)C(=O)N[C@@H](Cc1ccc(O)cc1)C(=O)N[C@@H](Cc1ccc(O)cc1)C(=O)N[C@@H](CC(N)=O)C(=O)N[C@@H](Cc1c[nH]c2ccccc12)C(=O)N[C@@H](CC(C)C)C(=O)N[C@H](C(=O)N[C@@H](CCCNC(=N)N)C(=O)N[C@@H](CCC(N)=O)C(=O)N[C@@H](CCCNC(=N)N)C(=O)N[C@@H](Cc1ccc(O)cc1)C(N)=O)[C@@H](C)O)C(C)C [Compound 131, N{alpha-4}-(3-methylbutanoyl)-N{epsilon-7}-[2-(2-{2-[2-(2-{2-[(4S)-4-carboxy-4-(17-carboxyheptadecanamido)butanamido]ethoxy}ethoxy)acetamido]ethoxy}ethoxy)acetamido]-[4A,7K,8A,9E,18Q,22V,23E,28Y,30W,31L]hPYY (4-36)] | 8.54 nM |
